Results from patent US20180085423A1, “METHODS FOR TREATING AND DIAGNOSING EATING DISORDERS” (THE TRUSTEES OF COLUMBIA UNIVERSITY IN THE CITY OF NEW YORK, priority 2015, published 2018).
Entries after “also recorded” stand apart in the source; their conditions may differ. Starred links: 1 amine or outer side, 2 acyl side, 3 side chain; linkers in the order of their positions; H or OH if unused. Positions of bridges follow the written chain, without caps; N, C: chain ends. Residues, ends and D or L forms follow the SMILES beside them. X1 = O=C(CC1(S[*:2])CCCCC1)[*:1]

Experiments:
[1] = system: Avpr1a−/− mutants (AVPR1a KO); experiment: Intra-amygdala AVP injection, food intake in Avpr1a-/- mutants; type: in vivo, mice; details: 0.03 ng AVP intra-amygdala vs. saline
Procedure: (§1) In this example, it was tested whether the anorexic effect of AVP can also be achieved by intra-amygdala injections. The amygdala is a long structure extending from −0.58 mm to −2.5 mm to Bregma. To select the stereotaxic coordinates for the injections, qPCR for Avpr1a on serial 200 μm vibratome sections was performed across the entire amygdala. A peak of expression at −1.4 mm was observed. Unilateral injections of 0.03 ng AVP (vs. saline, in a random crossover design) were made into the amygdala of wild-type mice at this position (dorso-ventral −4.5 mm, lateral −2.4 mm (right side) and rostro-caudal −1.4 mm) (see FIG. 13A).
Since AVP can also bind to AVPR1b and OxtR, the intra-amygdala injections were repeated in Avpr1a−/− mutants (AVPR1a KO) as described above for the wild-type mice.

[2] = system: wild-type C57BL6/J females; experiment: Block of the impact of central injection of AVP (3 ng i.c.v.) on food intake after an overnight fast; type: in vivo, mice; details: fasted wild-type females; for reversal of AVP-induced hypophagia (1 hour food intake): peripheral injection, Compound 1 7 μg/kg, SR49059 2 mg/kg, AVP 3 ng i.c.v.
Procedure: First, it was confirmed that the antagonist compounds act as predicted by assessing their ability to block the impact of central injection of AVP (3 ng i.c.v.) on food intake after an overnight fast in wild-type C57BL6/J females.

wild-type mice [3] = experiment: Intra-amygdala AVP injection, food intake in wild-type mice; type: in vivo; details: 0.03 ng AVP unilateral intra-amygdala vs. saline
Procedure: as §1

wild-type mice [4] = experiment: Food intake after an overnight fast in wild-type mice injected with Compound 1; type: in vivo; details: wild-type mice at 7-8 weeks of age, versus saline
Procedure: It was also investigated whether Compound 1 acts as a generic appetite stimulant. To test this idea, the impact of injecting Compound 1 after an overnight fast in wild-type mice at 7-8 weeks of age (FIG. 11, diamond data points) was tested.

GED mice = experiment: Food intake of GED mice during an aphagic episode after i.p. injection of an AVPR1A antagonist; type: in vivo; details: for food intake versus saline-injected GED mice, 1 hour after treatment: Compound 1 7 μg/kg, SR49059 2 mg/kg
Procedure: In the morning of the first day of an aphagic episode (≧18 hr of aphagia), GED mice were injected i.p. with 7 μg/kg Compound 1 (Sigma) vs. saline.
To determine the extent to which treatment with Compound 1 rescued the normal drive to re-feed after overnight fast, food intake in a group of saline-injected GED mice that were eating normally were also measured, and were then subjected to an investigator-initiated overnight fast (a condition when AVPR1A should not be elevated in the amygdala) (triangle data points, FIG. 11).
Next, the possibility that AVPR1A antagonists could be used to restore feeding behavior in GED mice during an acute aphagic episode was explored. It was studied whether peripheral injection of Compound 1 and SR49059 can reverse anorexigenic behavior in the GED mouse model. To this end, the impact of i.p. injections of […] of Compound 1 vs. 2 mg/kg SR49059 vs. saline in the morning of the first day of an aphagic episode (≧18 h of aphagia) was assessed.
Mice were given ad libitum access to food immediately after the injection and food intake was measured after 1 hour and 2 hours.

[5] = GED mice during aphagic episode, i.p., 1 hour

Structure (SMILES) | effect of intra-amygdala AVP on food intake, Avpr1a−/− mutants [1] | effect of central injection of AVP on food intake ([2]; 3 ng AVP i.c.v. vs. saline) | effect of intra-amygdala AVP on food intake, wild-type mice (wild-type mice [3]) | reversal of AVP-induced hypophagia (1 hour food intake) [2] | food intake in wild-type animals after an overnight fast (wild-type mice [4]) | rescue of food intake at 1 hour relative to normally eating GED mice after overnight fast (GED mice; 7 μg/kg dose, 1 hour) | rescue of food intake at 2 hours relative to normally eating GED mice after overnight fast (GED mice; 7 μg/kg dose, 2 hour) | food intake versus saline-injected GED mice, 2 hours after treatment (GED mice; GED mice during aphagic episode, i.p., 2 hours) | food intake versus saline-injected GED mice, 1 hour after treatment (GED mice; [5]) | reversal of AVP-induced hypophagia (1 hour food intake) ([2]; 2 mg/kg)
NC(=O)CC[C@@H]1NC(=O)[C@H](Cc2ccccc2)NC(=O)[C@H](Cc2ccc(O)cc2)NC(=O)[C@@H](N)CSSC[C@@H](C(=O)N2CCC[C@H]2C(=O)N[C@@H](CCCN=C(N)N)C(=O)NCC(N)=O)NC(=O)[C@H](CC(N)=O)NC1=O [AVP, arginine vasopressin] | did not affect food intake; also recorded: anorexic effect is not observed | hypophagia | food intake was reduced |  |  |  |  |  |  | 
COc1ccc(CC2NC(=O)CC3(CCCCC3)SSCC(C(=O)N3CCCC3C(=O)NC(CCCN=C(N)N)C(=O)NCC(N)=O)NC(=O)C(CC(N)=O)NC(=O)C(CCC(N)=O)NC(=O)C(Cc3ccccc3)NC2=O)cc1 (stereo not drawn) [Compound 1, 1-(beta-mercapto-betabeta-cycopentamethylenepropionic acid)-2-(O-methyl-Tyr)-argipressin] (Y(Me)FQNCPRG-NH2; linker N-5 via X1; configuration not given here) |  |  |  | can restore 1 hour food intake; also recorded: able to reverse hypophagia | did not impact food intake | partial rescue | nearly normalized | consumed significantly more food | consumed significantly more food | 
COc1ccc(S(=O)(=O)N2c3ccc(Cl)cc3[C@](O)(c3ccccc3Cl)[C@@H]2C(=O)N2CCC[C@H]2C(N)=O)cc1OC [SR49059] |  |  |  |  |  |  |  |  | did not enhance food intake | did not significantly reverse AVP-induced hypophagia; also recorded: did not have that effect
